Drawing on ChEMBL document CHEMBL2385068, “2-Aminobenzothiazole derivatives: search for new antifungal agents” (Eur J Med Chem, 2013), this text covers MIC, Ratio and Activity for 14 compounds.

The test system of one data set is Candida parapsilosis. As to the kind of experiment: Antifungal activity against Candida parapsilosis ATCC 22019 after 24 to 48 hrs by broth microdilution method. The conditions noted are these: Lodderomyces parapsilosis. Type of data set: functional.
In data set [1] the test system is Pichia kudriavzevii. As to the kind of experiment: Antifungal activity against Candida krusei ATCC 6258 after 24 to 48 hrs by broth microdilution method. Type of data set: functional.
The next data set relates to Candida albicans. The data set can be described thus: Antifungal activity against Candida albicans ATCC 10231 after 24 to 48 hrs by broth microdilution method. Type of data set: functional. A general note: Dilution methods test growth across graded concentrations, often in twofold steps.
The next data set deals with Candida tropicalis. The data set can be described thus: Antifungal activity against Candida tropicalis ATCC 750 after 24 to 48 hrs by broth microdilution method. The format is functional.
A further data set relates to Staphylococcus aureus. As to the kind of experiment: Antibacterial activity against Staphylococcus aureus ATCC 29213 after 24 hrs by broth microdilution method. The format is functional. The conditions noted are these: ATCC 29213, 24 h.
Data set [2] has as its system Pichia kudriavzevii. As to the kind of experiment: Ratio of fluconazole MIC to compound MIC for Candida krusei ATCC 6258. The format is functional.
A further data set deals with Enterococcus faecalis. As to the kind of experiment: Antibacterial activity against Enterococcus faecalis ATCC 29212 after 24 hrs by broth microdilution method. The format is functional. The note with it: ATCC 29212, 24 h.
Another data set deals with Escherichia coli. The data set can be described thus: Antibacterial activity against Escherichia coli ATCC 25922 after 24 hrs by broth microdilution method. The format is functional. The conditions noted are these: ATCC 25922, 24 h.
Data set [3] has as its system THP-1. The data set can be described thus: Cytotoxicity against human THP1 cells assessed as release of lactate dehydrogenase at 10 times MIC after 24 hrs. The note with it: thp-1, 24 h. Type of data set: cell-based.
For data set [4], the system named is THP-1. The data set can be described thus: Cytotoxicity against human THP1 cells at 4 times MIC after 24 hrs by trypan blue exclusion assay. Type of data set: cell-based. The conditions noted are these: thp-1, 24 h.
Data set [5] concerns THP-1. As to the kind of experiment: Cytotoxicity against human THP1 cells assessed as release of lactate dehydrogenase at 4 times MIC after 24 hrs. The format is cell-based. The conditions noted are these: thp-1, 24 h.

Converted amounts (≈) assume the structure as drawn.

For orientation: MIC means the lowest concentration found to suppress growth. A low value points to inhibition by little substance. For `OC(Cn1cncn1)(Cn1cncn1)c1ccc(F)cc1F` [FLUCONAZOLE], the MIC in the data set on Candida parapsilosis came out at 2 µg/mL (≈ 6.53 µM); against Pichia kudriavzevii [1] it was 32 µg/mL (≈ 104 µM); in the data set with Candida albicans, 2 µg/mL (≈ 6.53 µM); against Candida tropicalis it was 4 µg/mL (≈ 13.1 µM).

As to `Nc1nc2ccc(OCCc3ccccc3)cc2s1`, the minimal inhibitory concentration (MIC) is 16 µg/mL (≈ 59.2 µM) against Candida parapsilosis; above 512 µg/mL against Staphylococcus aureus; 16 µg/mL (≈ 59.2 µM) in the data set with Pichia kudriavzevii [1]; 8 µg/mL (≈ 29.6 µM) in the data set on Candida albicans; 32 µg/mL (≈ 118 µM) against Candida tropicalis; 128 µg/mL (≈ 473 µM) against Enterococcus faecalis. Moreover, the MIC in the data set with Escherichia coli is above 512 µg/mL. The Ratio in the data set with Pichia kudriavzevii [2] was determined as 2.

On to `CCOc1ccc2nc(N)sc2c1`, for which the MIC is 128 µg/mL (≈ 659 µM) in the data set on Candida parapsilosis; 512 µg/mL (≈ 2640 µM) with Staphylococcus aureus; 256 µg/mL (≈ 1320 µM) against Pichia kudriavzevii [1]; 128 µg/mL (≈ 659 µM) in the data set on Candida albicans; 128 µg/mL (≈ 659 µM) in the data set with Candida tropicalis; 512 µg/mL (≈ 2640 µM) with Enterococcus faecalis. The MIC against Escherichia coli is above 512 µg/mL.

`Nc1nc2ccc(Oc3ccc(Cl)cc3)cc2s1`: the MIC against Candida parapsilosis worked out at 4 µg/mL (≈ 14.5 µM); with Staphylococcus aureus, 512 µg/mL (≈ 1850 µM); in the data set on Pichia kudriavzevii [1], 32 µg/mL (≈ 116 µM); in the data set on Candida albicans, 8 µg/mL (≈ 28.9 µM); against Candida tropicalis it was 8 µg/mL (≈ 28.9 µM); against Enterococcus faecalis, 512 µg/mL (≈ 1850 µM). The same compound returned an MIC with Escherichia coli above 512 µg/mL. For the same compound, the Activity entry in the data set on THP-1 [3] is recorded as “Non-toxic”.

As to `Nc1nc2ccc(OC(F)(F)F)cc2s1` [RILUZOLE], the MIC with Candida parapsilosis was 64 µg/mL (≈ 273 µM); with Staphylococcus aureus, 256 µg/mL (≈ 1090 µM); against Pichia kudriavzevii [1], 128 µg/mL (≈ 547 µM); in the data set with Candida albicans, 64 µg/mL (≈ 273 µM); against Candida tropicalis, 128 µg/mL (≈ 547 µM); with Enterococcus faecalis, 512 µg/mL (≈ 2190 µM). Besides, the MIC with Escherichia coli turned out to be 512 µg/mL (≈ 2190 µM).

For `Nc1nc2ccc(OCc3ccc(Cl)cc3)cc2s1`, the MIC was found to be 8 µg/mL (≈ 27.5 µM) in the data set on Candida parapsilosis; 256 µg/mL (≈ 880 µM) against Staphylococcus aureus; 64 µg/mL (≈ 220 µM) in the data set on Pichia kudriavzevii [1]; 4 µg/mL (≈ 13.8 µM) against Candida albicans; 4 µg/mL (≈ 13.8 µM) against Candida tropicalis; 256 µg/mL (≈ 880 µM) in the data set on Enterococcus faecalis. The MIC against Escherichia coli is above 512 µg/mL. For the same compound, the Activity result with THP-1 [4] and with THP-1 [5] was “Toxic” each time.

Regarding `Nc1nc2ccc(COc3ccccc3)cc2s1`, the MIC is 16 µg/mL (≈ 62.4 µM) against Candida parapsilosis; 256 µg/mL (≈ 999 µM) with Staphylococcus aureus; 64 µg/mL (≈ 250 µM) against Pichia kudriavzevii [1]; 32 µg/mL (≈ 125 µM) in the data set on Candida albicans; 16 µg/mL (≈ 62.4 µM) against Candida tropicalis; 128 µg/mL (≈ 499 µM) in the data set with Enterococcus faecalis. Also, in the data set with Escherichia coli, the MIC is above 512 µg/mL.

Regarding `Nc1nc2ccc(OCCCc3ccccc3)cc2s1`, the MIC was 16 µg/mL (≈ 56.3 µM) against Candida parapsilosis; 512 µg/mL (≈ 1800 µM) against Staphylococcus aureus; 16 µg/mL (≈ 56.3 µM) against Pichia kudriavzevii [1]; 32 µg/mL (≈ 113 µM) against Candida albicans; 16 µg/mL (≈ 56.3 µM) against Candida tropicalis; 128 µg/mL (≈ 450 µM) against Enterococcus faecalis. The compound also gave an MIC in the data set on Escherichia coli above 512 µg/mL. For the same compound, the Ratio in the data set with Pichia kudriavzevii [2] is 2.

As for `Nc1nc2ccc(OCc3ccccc3)cc2s1`, the MIC was 8 µg/mL (≈ 31.2 µM) with Candida parapsilosis; above 512 µg/mL in the data set on Staphylococcus aureus; 64 µg/mL (≈ 250 µM) against Pichia kudriavzevii [1]; 8 µg/mL (≈ 31.2 µM) in the data set with Candida albicans; 8 µg/mL (≈ 31.2 µM) against Candida tropicalis; above 512 µg/mL against Enterococcus faecalis. For the same compound, in the data set with Escherichia coli, the MIC is above 512 µg/mL.

In the case of `CCn1cc(C(=O)O)c(=O)c2cc(F)c(N3CCNCC3)cc21` [NORFLOXACIN], the MIC in the data set with Staphylococcus aureus amounted to 0.5 µg/mL (≈ 1.57 µM); with Enterococcus faecalis, 4 µg/mL (≈ 12.5 µM); against Escherichia coli, 0.03 µg/mL (≈ 0.0939 µM).

Consider `Nc1nc2ccc(OCCCCc3ccccc3)cc2s1`, for which the MIC with Candida parapsilosis is 128 µg/mL (≈ 429 µM); against Staphylococcus aureus it was 512 µg/mL (≈ 1720 µM); against Pichia kudriavzevii [1] it was above 512 µg/mL; in the data set on Candida albicans it was 512 µg/mL (≈ 1720 µM); with Candida tropicalis it was 512 µg/mL (≈ 1720 µM); against Enterococcus faecalis, 256 µg/mL (≈ 858 µM). The MIC with Escherichia coli is above 512 µg/mL.

In the case of `Nc1nc2ccc(Oc3ccccc3)cc2s1`, the minimum inhibitory concentration (MIC) in the data set with Candida parapsilosis is 16 µg/mL (≈ 66 µM); in the data set with Staphylococcus aureus, above 512 µg/mL; against Pichia kudriavzevii [1], 32 µg/mL (≈ 132 µM); in the data set on Candida albicans it was 128 µg/mL (≈ 528 µM); with Candida tropicalis it was 32 µg/mL (≈ 132 µM); with Enterococcus faecalis, above 512 µg/mL. This compound also registered an MIC with Escherichia coli above 512 µg/mL.

Turning to `Nc1nc2ccc(C(F)(F)F)cc2s1`, the MIC was 64 µg/mL (≈ 293 µM) in the data set with Candida parapsilosis; 256 µg/mL (≈ 1170 µM) with Staphylococcus aureus; 64 µg/mL (≈ 293 µM) against Pichia kudriavzevii [1]; 16 µg/mL (≈ 73.3 µM) against Candida albicans; 64 µg/mL (≈ 293 µM) in the data set on Candida tropicalis; 256 µg/mL (≈ 1170 µM) against Enterococcus faecalis. The minimal inhibitory concentration (MIC) in the data set on Escherichia coli is above 512 µg/mL.

In the case of `COc1ccc2nc(N)sc2c1`, the MIC in the data set on Candida parapsilosis is 256 µg/mL (≈ 1420 µM); in the data set on Staphylococcus aureus, 128 µg/mL (≈ 710 µM); against Pichia kudriavzevii [1], 512 µg/mL (≈ 2840 µM); in the data set on Candida albicans, 256 µg/mL (≈ 1420 µM); against Candida tropicalis it was 256 µg/mL (≈ 1420 µM); against Enterococcus faecalis it was 128 µg/mL (≈ 710 µM). This compound also gave an MIC in the data set on Escherichia coli above 512 µg/mL.
